In patent publication US20250215029A1 (Recludix Pharma, Inc., priority 2022, published 2025) one finds IC50 data, which are given here for 14 compounds.

Experiment [1] addresses T1, Recombinant STAT6 protein (STAT6 (W123-T658)) (Homo sapiens, UniProt P42226).
T1 construct: Recombinant STAT6 protein (STAT6 (W123-T658))
T1 sequence (P42226 123-658): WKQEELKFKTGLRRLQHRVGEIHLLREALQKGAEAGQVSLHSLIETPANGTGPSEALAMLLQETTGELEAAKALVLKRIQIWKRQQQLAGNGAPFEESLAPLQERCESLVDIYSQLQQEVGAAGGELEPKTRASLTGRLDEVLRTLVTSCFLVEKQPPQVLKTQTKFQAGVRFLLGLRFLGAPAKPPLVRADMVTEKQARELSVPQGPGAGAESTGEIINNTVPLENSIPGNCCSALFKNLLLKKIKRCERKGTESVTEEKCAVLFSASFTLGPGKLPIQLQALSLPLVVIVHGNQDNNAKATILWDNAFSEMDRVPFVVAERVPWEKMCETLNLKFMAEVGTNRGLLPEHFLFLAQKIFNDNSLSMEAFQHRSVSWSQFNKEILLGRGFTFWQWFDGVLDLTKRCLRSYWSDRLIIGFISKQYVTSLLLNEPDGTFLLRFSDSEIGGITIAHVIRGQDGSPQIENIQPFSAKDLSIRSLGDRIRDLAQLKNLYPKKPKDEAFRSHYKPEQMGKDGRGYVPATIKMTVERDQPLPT
In words: STAT6 Fluorescence Polarization (FP) Assay. It is filed as binding. The following applies: STAT6 (W123-T658) 250 nM, probe 5-FAM-Ap[…]-NH2 2 nM, 45-minute incubation; read-out: STAT6 (FP assay IC50 class). A digest of the protocol:
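Fluorescence polarization (mP) read-out: 250 nM STAT6 (W123-T658) plus 2 nM 5-FAM phosphotyrosine peptide, 45 min, room temperature, 1% DMSO. IC50 by nonlinear fit of mP against log compound concentration.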

Experiment [2] addresses T2, Recombinant STAT3 protein (STAT3 (G127-I722)) (Homo sapiens, UniProt P40763).
T2 construct: Recombinant STAT3 protein (STAT3 (G127-I722))
Briefly: STAT3 Fluorescence Polarization (FP) Assay. It is filed as binding. The following applies: STAT3 (G127-I722) 25 nM, probe 5-FAM-GpYLPQTV-NH2 2 nM, 45-minute incubation; read-out: STAT3 (FP assay IC50 class). A digest of the protocol:
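Displacement of a 2 nM 5-FAM-labelled pY peptide (GpYLPQTV) from 25 nM recombinant STAT3 (G127-I722) was monitored by fluorescence polarization. Incubation lasted 45 min at room temperature in pH 7.4 HEPES buffer containing 1% DMSO.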
For orientation: Polarisation of emitted light reports the rotation of a fluorescent probe.

T2 sequence (P40763 127-722): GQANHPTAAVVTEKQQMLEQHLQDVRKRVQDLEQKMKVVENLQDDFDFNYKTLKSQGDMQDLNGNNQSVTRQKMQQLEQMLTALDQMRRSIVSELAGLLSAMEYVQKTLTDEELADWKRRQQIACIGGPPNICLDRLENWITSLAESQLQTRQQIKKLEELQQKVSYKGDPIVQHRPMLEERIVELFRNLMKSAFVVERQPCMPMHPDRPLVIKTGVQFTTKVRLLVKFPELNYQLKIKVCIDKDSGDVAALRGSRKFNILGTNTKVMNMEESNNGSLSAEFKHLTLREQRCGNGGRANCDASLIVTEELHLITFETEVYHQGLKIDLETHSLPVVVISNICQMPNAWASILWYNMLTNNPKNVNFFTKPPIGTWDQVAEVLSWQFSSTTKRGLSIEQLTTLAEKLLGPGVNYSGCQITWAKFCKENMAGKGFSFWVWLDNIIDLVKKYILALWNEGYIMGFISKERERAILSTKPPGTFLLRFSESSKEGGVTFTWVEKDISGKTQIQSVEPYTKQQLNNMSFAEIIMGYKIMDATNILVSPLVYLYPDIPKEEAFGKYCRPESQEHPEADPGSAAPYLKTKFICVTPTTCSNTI

With `Cc1nccnc1C1CN(C(=O)[C@@H]2CC[C@@H]3CCC[C@H](NC(=O)c4cc5cc(CP(=O)(O)O)ccc5s4)C(=O)N32)C1` [Compound 649, ((2-(((3S,6S,9aS)-3-(3-(3-methylpyrazin-2-yl)azetidine-1-carbonyl)-5-oxooctahydro-1H-pyrrolo[1,2-a]azepin-6-yl)carbamoyl)benzo [b]thiophen-5-yl)methyl) phosphonic acid], the IC50 in experiment [1] was 3 to 30 µM; in experiment [2] it was 1 to 10 µM.
Regarding `Cc1cncnc1C1CN(C(=O)[C@@H]2CC[C@@H]3CCC[C@H](NC(=O)c4cc5cc(CP(=O)(O)O)ccc5s4)C(=O)N32)C1` [Compound 650, ((2-(((3S,6S,9aS)-3-(3-(5-methylpyrimidin-4-yl)azetidine-1-carbonyl)-5-oxooctahydro-1H-pyrrolo[1,2-a]azepin-6-yl)carbamoyl)benzo [b]thiophen-5-yl)methyl) phosphonic acid], the IC50 in experiment [1] was in the range of 3 to 30 µM; in experiment [2] it was 1 to 10 µM.
On the same counts, the results for `COC1(c2cccnc2)CN(C(=O)[C@@H]2CC[C@@H]3CCCC[C@H](NC(=O)c4cc5cc(CP(=O)(O)O)ccc5s4)C(=O)N32)C1` [Compound 651, ((2-(((3S,6S,10aS)-3-(3-methoxy-3-(pyridin-3-yl)azetidine-1-carbonyl)-5-oxodecahydropyrrolo [1,2-a]azocin-6-yl)carbamoyl)benzo [b]thiophen-5-yl)methyl) phosphonic acid] are 3 to 30 µM and 1 to 10 µM.
With `Cc1cncnc1C1CN(C(=O)[C@@H]2CC[C@@H]3CCC[C@H](NC(=O)c4cc5cc(C(F)(F)P(=O)(O)O)ccc5s4)C(=O)N32)C1` [Compound 652, (difluoro(2-(((3S,6S,9aS)-3-(3-(5-methylpyrimidin-4-yl)azetidine-1-carbonyl)-5-oxooctahydro-1H-pyrrolo[1,2-a]azepin-6-yl)carbamoyl)benzo [b]thiophen-5-yl)methyl) phosphonic acid], the figures for the IC50 in experiment [1] and in experiment [2] were 0.3 to 3 µM and 0.1 to 1 µM, respectively.
As for `N#Cc1cccc(C2CN(C(=O)[C@@H]3CC[C@@H]4CCC[C@H](NC(=O)c5cc6cc(CP(=O)(O)O)ccc6s5)C(=O)N43)C2)n1` [Compound 653, ((2-(((3S,6S,9aS)-3-(3-(6-cyanopyridin-2-yl)azetidine-1-carbonyl)-5-oxooctahydro-1H-pyrrolo[1,2-a]azepin-6-yl)carbamoyl)benzo [b]thiophen-5-yl)methyl) phosphonic acid], the IC50 in experiment [1] was 3 to 30 µM; in experiment [2], 0.1 to 1 µM.
Regarding `COCC1(c2ncccn2)CN(C(=O)[C@@H]2CC[C@@H]3CCCC[C@H](NC(=O)c4cc5cc(C(F)(F)P(=O)(O)O)ccc5s4)C(=O)N32)C1` [Compound 654, (difluoro(2-(((3S,6S,10aS)-3-(3-(methoxymethyl)-3-(pyrimidin-2-yl)azetidine-1-carbonyl)-5-oxodecahydropyrrolo [1,2-a]azocin-6-yl)carbamoyl)benzo [b]thiophen-5-yl)methyl) phosphonic acid], the IC50 is 3 to 30 µM in experiment [1] and 0.1 to 1 µM in experiment [2].
On to `Cc1ccncc1C1CN(C(=O)[C@@H]2CC[C@@H]3C[C@@H](C)CC[C@H](NC(=O)c4cc5cc(CP(=O)(O)O)ccc5s4)C(=O)N32)C1` [Compound 655, ((2-(((3S,6S,9S,10aR)-9-methyl-3-(3-(4-methylpyridin-3-yl)azetidine-1-carbonyl)-5-oxodecahydropyrrolo [1,2-a]azocin-6-yl)carbamoyl)benzo [b]thiophen-5-yl)methyl) phosphonic acid], for which the IC50 was in the range of 3 to 30 µM in experiment [1] and 0.1 to 1 µM in experiment [2].
For the compound `Cc1ccncc1C1CN(C(=O)[C@@H]2CC[C@@H]3C[C@H](C)CC[C@H](NC(=O)c4cc5cc(CP(=O)(O)O)ccc5s4)C(=O)N32)C1` [Compound 656, ((2-(((3S,6S,9R,10aR)-9-methyl-3-(3-(4-methylpyridin-3-yl)azetidine-1-carbonyl)-5-oxodecahydropyrrolo [1,2-a]azocin-6-yl)carbamoyl)benzo [b]thiophen-5-yl)methyl) phosphonic acid], the IC50 in experiment [1] fell in the range of 3 to 30 µM; in experiment [2], 0.1 to 1 µM.
In the same order, the values of `Cc1cccnc1C1CN(C(=O)[C@@H]2CC[C@@H]3CCC[C@H](NC(=O)c4cc5cc(CP(=O)(O)O)ccc5s4)C(=O)N32)C1` [Compound 657, ((2-(((3S,6S,9aS)-3-(3-(3-methylpyridin-2-yl)azetidine-1-carbonyl)-5-oxooctahydro-1H-pyrrolo[1,2-a]azepin-6-yl)carbamoyl)benzo [b]thiophen-5-yl)methyl) phosphonic acid] are 3 to 30 µM and 1 to 10 µM.
On the same counts, the results for `Cc1cccnc1C1CN(C(=O)[C@@H]2CC[C@@H]3CCC[C@H](NC(=O)c4cc5cc(C(F)(F)P(=O)(O)O)ccc5s4)C(=O)N32)C1` [Compound 658, (difluoro(2-(((3S,6S,9aS)-3-(3-(3-methylpyridin-2-yl)azetidine-1-carbonyl)-5-oxooctahydro-1H-pyrrolo[1,2-a]azepin-6-yl)carbamoyl)benzo [b]thiophen-5-yl)methyl) phosphonic acid] are 0.3 to 3 µM and 0.1 to 1 µM.
With `N#Cc1cncc(C2CN(C(=O)[C@@H]3CC[C@@H]4CCC[C@H](NC(=O)c5cc6cc(CP(=O)(O)O)ccc6s5)C(=O)N43)C2)c1` [Compound 659, ((2-(((3S,6S,9aS)-3-(3-(5-cyanopyridin-3-yl)azetidine-1-carbonyl)-5-oxooctahydro-1H-pyrrolo[1,2-a]azepin-6-yl)carbamoyl)benzo [b]thiophen-5-yl)methyl) phosphonic acid], the IC50 in experiment [1] fell in the range of 3 to 30 µM; in experiment [2], 1 to 10 µM.
As to `N#Cc1ccnc(C2CN(C(=O)[C@@H]3CC[C@@H]4CCC[C@H](NC(=O)c5cc6cc(CP(=O)(O)O)ccc6s5)C(=O)N43)C2)n1` [Compound 660, ((2-(((3S,6S,9aS)-3-(3-(4-cyanopyrimidin-2-yl)azetidine-1-carbonyl)-5-oxooctahydro-1H-pyrrolo[1,2-a]azepin-6-yl)carbamoyl)benzo [b]thiophen-5-yl)methyl) phosphonic acid], the figures for the concentration for half-maximal inhibition (IC50) in experiment [1] and in experiment [2] were 3 to 30 µM and 1 to 10 µM, respectively.
For the compound `Cc1ncncc1C1CN(C(=O)[C@@H]2CC[C@@H]3CCC[C@H](NC(=O)c4cc5cc(CP(=O)(O)O)ccc5s4)C(=O)N32)C1` [Compound 661, ((2-(((3S,6S,9aS)-3-(3-(4-methylpyrimidin-5-yl)azetidine-1-carbonyl)-5-oxooctahydro-1H-pyrrolo[1,2-a]azepin-6-yl)carbamoyl)benzo [b]thiophen-5-yl)methyl) phosphonic acid], the IC50 lay in the range of 3 to 30 µM in experiment [1] and 1 to 10 µM in experiment [2].
On the same counts, the results for `Cn1c(C2CN(C(=O)[C@@H]3CC[C@@H]4CCCC[C@H](NC(=O)c5cc6cc(CP(=O)(O)O)ccc6s5)C(=O)N43)C2)nc2ccccc21` [Compound 662, ((2-(((3S,6S,10aS)-3-(3-(1-methyl-1H-benzo[d]imidazol-2-yl)azetidine-1-carbonyl)-5-oxodecahydropyrrolo [1,2-a]azocin-6-yl)carbamoyl)benzo [b]thiophen-5-yl)methyl) phosphonic acid] are 3 to 30 µM and 1 to 10 µM.

By IC50 is commonly meant the midpoint of a concentration-inhibition curve.
